pIC50: −log10 of the molar value.
Columns and labels:
[1] = biological target: IDH1 R132H (Homo sapiens, UniProt O75874, R132H); experiment: In vitro assay for IDH1 R132H inhibitors (NADPH/aKG, resazurin detection); type: biochemical; details: Table 4B; 0.2 μg/ml IDH1 R132H, 50 minutes at room temperature; read-out: IC50, IDH1 R132H Inhibition
Outline: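 Buffer: 150 mM NaCl, 10 mM MgCl2, 20 mM Tris pH 7.5, 0.03% BSA. Compound was added to substrate mix (8 uM NADPH, 2 mM aKG), then enzyme mix (0.2 μg/ml IDH1 R132H), and incubated 50 min at room temperature. Remaining NADPH was read by resazurin (30 μM in detection mix) to resorufin fluorescence after 5 min, Ex544/Em590.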

[2] = tested on: HT1080 cells; experiment: Cellular assay: inhibition of 2-HG production in HT1080 cells (LC-MS, 48 hours); type: cell-based; details: Homo sapiens, HT-1080, 2-HG in media by LC-MS
Outline: (§1)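 HT1080 or U87MG cells (5000/well, DMEM + 10% FBS) seeded overnight, then exposed to compound (0.2% DMSO final) for 48 h; medium 2-HG measured by LC-MS. Viability read by CellTiter-Glo luminescence at 72 h.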

[3] = tested on: U87MG cells; experiment: Cellular assay: inhibition of 2-HG production in U87MG cells (LC-MS, 48 hours); type: cell-based; details: Homo sapiens, U-87 MG, 2-HG in media by LC-MS
Outline: as §1

Sequence of IDH1 R132H (O75874 whole entry R132H): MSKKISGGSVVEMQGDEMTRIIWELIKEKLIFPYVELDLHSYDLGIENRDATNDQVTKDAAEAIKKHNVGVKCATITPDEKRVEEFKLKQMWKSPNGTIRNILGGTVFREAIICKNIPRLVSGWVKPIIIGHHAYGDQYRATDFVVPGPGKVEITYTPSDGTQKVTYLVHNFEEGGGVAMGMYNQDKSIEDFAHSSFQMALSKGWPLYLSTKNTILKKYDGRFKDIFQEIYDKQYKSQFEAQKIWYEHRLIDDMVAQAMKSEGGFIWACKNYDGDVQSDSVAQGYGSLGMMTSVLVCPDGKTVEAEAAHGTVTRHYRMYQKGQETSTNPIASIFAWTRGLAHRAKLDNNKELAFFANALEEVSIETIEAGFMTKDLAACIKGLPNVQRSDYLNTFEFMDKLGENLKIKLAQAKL

pIC50 [1]	pIC50 [2]	pIC50 [3]	Structure (SMILES)
6.00 to 7.00	5.30 to 6.00	5.30 to 6.00	Cc1ccccc1C(C(=O)NC1CCCCC1)N(C(=O)CNCc1cnccn1)c1cccc(F)c1 (stereo not drawn) [Compound 254]
6.00 to 7.00	≥ 6.60	6.00 to 6.60	Cc1ccccc1C(C(=O)NC1CCCCC1)N(C(=O)Cn1cnc2ccccc21)c1ccn(C)n1 (stereo not drawn) [Compound 255]
6.00 to 7.00	6.00 to 6.60	5.30 to 6.00	Cc1ccccc1C(C(=O)NC1CCCCC1)N(C(=O)CNCc1ccn(C)n1)c1cccc(F)c1 (stereo not drawn) [Compound 256]
6.00 to 7.00	6.00 to 6.60	6.00 to 6.60	Cc1ccccc1C(C(=O)NC1CCCCC1)N(C(=O)CNCc1nccs1)c1cccc(F)c1 (stereo not drawn) [Compound 257]
6.00 to 7.00	6.00 to 6.60	6.00 to 6.60	Cc1ccccc1C(C(=O)NC1CCCCC1)N(C(=O)CNc1ccc(S(C)(=O)=O)cc1)c1cccc(F)c1 (stereo not drawn) [Compound 258]
6.00 to 7.00	6.00 to 6.60	6.00 to 6.60	Cc1ccccc1C(C(=O)NC1CCCCC1)N(C(=O)COC1CCOCC1)c1cccc(F)c1 (stereo not drawn) [Compound 259]
≥ 7.00	≥ 6.60	6.00 to 6.60	Cc1ccccc1C(C(=O)NC1CCCCC1)N(C(=O)COc1ccc(F)cn1)c1cccc(F)c1 (stereo not drawn) [Compound 260]
6.00 to 7.00	6.00 to 6.60	5.30 to 6.00	Cc1ccccc1C(C(=O)NC1CCCCC1)N(C(=O)Cc1c[nH]c2ccncc12)c1cccc(F)c1 (stereo not drawn) [Compound 261]
6.00 to 7.00	5.30 to 6.00	5.30 to 6.00	Cc1ccccc1C(C(=O)NC1CCCCC1)N(C(=O)C(=O)c1c[nH]c2ccccc12)c1cccc(F)c1 (stereo not drawn) [Compound 262]
6.00 to 7.00	6.00 to 6.60	6.00 to 6.60	Cc1ccccc1C(C(=O)NC1CCCCC1)N(C(=O)Cc1ccc(OC(=O)N2CCOCC2)cc1)c1cccc(F)c1 (stereo not drawn) [Compound 264]
≥ 7.00	≥ 6.60	6.00 to 6.60	Cc1ccccc1C(C(=O)NC1CCCCC1)N(C(=O)CNc1cccc(C#N)c1)c1cccc(F)c1 (stereo not drawn) [Compound 265]
6.00 to 7.00	< 5.30	< 5.30	Cc1ccccc1C(C(=O)NC1CCCCC1)N(C(=O)Cn1cnc2cnccc21)c1cccc(F)c1 (stereo not drawn) [Compound 266]
6.00 to 7.00	6.00 to 6.60	5.30 to 6.00	Cc1ccccc1C(C(=O)NC1CCCCC1)N(C(=O)CNCc1cscn1)c1cccc(F)c1 (stereo not drawn) [Compound 267]
6.00 to 7.00	5.30 to 6.00	≥ 6.60	Cc1ccccc1C(C(=O)NC1CCCCC1)N(C(=O)Cn1ccnc1C)c1cccc(Br)c1 (stereo not drawn) [Compound 268]
6.00 to 7.00	5.30 to 6.00	5.30 to 6.00	Cc1ccccc1C(C(=O)NC1CCCCC1)N(C(=O)C(=O)c1c[nH]c2ccncc12)c1cccc(F)c1 (stereo not drawn) [Compound 269]
6.00 to 7.00	5.30 to 6.00	5.30 to 6.00	Cc1ccccc1C(C(=O)NC1CCCCC1)N(C(=O)C(=O)NCc1ccncc1)c1cccc(F)c1 (stereo not drawn) [Compound 270]
≥ 7.00	≥ 6.60	6.00 to 6.60	Cc1ccccc1C(C(=O)NC1CCCCC1)N(C(=O)Cn1ccc2ccccc21)c1cccc(F)c1 (stereo not drawn) [Compound 271]
≥ 7.00	≥ 6.60	≥ 6.60	Cc1ccccc1C(C(=O)NC1CCCCC1)N(C(=O)CNc1cccnc1F)c1cccc(F)c1 (stereo not drawn) [Compound 272]
6.00 to 7.00	6.00 to 6.60	6.00 to 6.60	Cc1ccccc1C(C(=O)NC1CCCCC1)N(C(=O)COc1cccnn1)c1cccc(F)c1 (stereo not drawn) [Compound 273]
≥ 7.00	≥ 6.60	6.00 to 6.60	Cc1ccccc1C(C(=O)NC1CCCCC1)N(C(=O)Cc1c[nH]c2cccnc12)c1cccc(F)c1 (stereo not drawn) [Compound 275]
≥ 7.00	≥ 6.60	≥ 6.60	Cc1ccccc1C(C(=O)NC1CCCCC1)N(C(=O)Cc1c[nH]c2cnccc12)c1cccc(F)c1 (stereo not drawn) [Compound 276]
6.00 to 7.00	≥ 6.60	≥ 6.60	Cc1ccccc1C(C(=O)NC1CCCCC1)N(C(=O)CNc1ccccc1C#N)c1cccc(F)c1 (stereo not drawn) [Compound 278]
6.00 to 7.00	5.30 to 6.00	< 5.30	Cc1ccccc1C(C(=O)NC1CCCCC1)N(C(=O)CNc1ccc(C(F)(F)F)nc1)c1cccc(F)c1 (stereo not drawn) [Compound 279]
6.00 to 7.00	5.30 to 6.00	5.30 to 6.00	Cc1ccccc1C(C(=O)NC1CCCCC1)N(C(=O)CNc1ccnc(F)c1)c1cccc(F)c1 (stereo not drawn) [Compound 280]
6.00 to 7.00	≥ 6.60	6.00 to 6.60	Cc1ccccc1C(C(=O)NC1CCCCC1)N(C(=O)COCc1ccccn1)c1cccc(F)c1 (stereo not drawn) [Compound 281]

pIC50 [1]	pIC50 [2]	pIC50 [3]	Structure (SMILES)
6.00 to 7.00	6.00 to 6.60	< 5.30	Cc1ccccc1C(C(=O)NC1CCCCC1)N(C(=O)COCc1cnccn1)c1cccc(F)c1 (stereo not drawn) [Compound 282]
6.00 to 7.00	6.00 to 6.60	6.00 to 6.60	Cc1ccccc1C(C(=O)NC1CCCCC1)N(C(=O)C(C)c1c[nH]c2ccccc12)c1cccc(F)c1 (stereo not drawn) [Compound 283]
6.00 to 7.00	6.00 to 6.60	5.30 to 6.00	Cc1ccccc1C(C(=O)NC1CCCCC1)N(C(=O)C(=O)c1nccn1C)c1cccc(F)c1 (stereo not drawn) [Compound 284]
6.00 to 7.00	6.00 to 6.60	≥ 6.60	Cc1ccccc1C(C(=O)NC1CCCCC1)N(C(=O)Cn1ccnc1C)c1cccc(-c2ccccc2)c1 (stereo not drawn) [Compound 286]
≥ 7.00	≥ 6.60	≥ 6.60	Cc1ccccc1C(C(=O)NC1CCCCC1)N(C(=O)CNc1cc(F)ccn1)c1cccc(F)c1 (stereo not drawn) [Compound 287]
≥ 7.00	6.00 to 6.60	5.30 to 6.00	Cc1ccccc1C(C(=O)NC1CCCCC1)N(C(=O)Cc1cccnc1)c1cccc(F)c1 (stereo not drawn) [Compound 288]
≥ 7.00	≥ 6.60	≥ 6.60	Cc1ccccc1C(C(=O)NC1CCCCC1)N(C(=O)Cc1n[nH]c2ccccc12)c1cccc(F)c1 (stereo not drawn) [Compound 289]
≥ 7.00	≥ 6.60	6.00 to 6.60	Cc1ccccc1C(C(=O)NC1CCCCC1)N(C(=O)CNc1ccc(-c2nnco2)cc1)c1cccc(F)c1 (stereo not drawn) [Compound 290]
≥ 7.00	≥ 6.60	6.00 to 6.60	Cc1ccccc1C(C(=O)NC1CCCCC1)N(C(=O)CNc1ccc(-c2ncon2)cc1)c1cccc(F)c1 (stereo not drawn) [Compound 291]
6.00 to 7.00	5.30 to 6.00	5.30 to 6.00	Cc1ccccc1C(C(=O)NC1CCCCC1)N(C(=O)Cn1ccnc1C)c1cccc(-c2cccc(OC(F)(F)F)c2)c1 (stereo not drawn) [Compound 292]
≥ 7.00	6.00 to 6.60	≥ 6.60	COC(=O)N1CCCCC1C(=O)N(c1cccc(F)c1)C(C(=O)NC1CCCCC1)c1ccccc1C (stereo not drawn) [Compound 293]
6.00 to 7.00	5.30 to 6.00	6.00 to 6.60	Cc1ccccc1C(C(=O)NC1CCCCC1)N(C(=O)Cn1cncn1)c1cccc(F)c1 (stereo not drawn) [Compound 294]
6.00 to 7.00	5.30 to 6.00	≥ 6.60	Cc1nccn1CC(=O)N(c1cccc(F)c1)C(C(=O)NC1CCCCC1)c1ccccc1 (stereo not drawn) [Compound 295]
6.00 to 7.00	5.30 to 6.00	≥ 6.60	O=C(NC1CCCCC1)C(c1ccccc1)N(C(=O)Cn1ccnc1)c1cccc(F)c1 (stereo not drawn) [Compound 296]
≥ 7.00	6.00 to 6.60	≥ 6.60	Cc1ccccc1C(C(=O)NC1CCCCC1)N(C(=O)Cc1ccc2[nH]ccc2c1)c1cccc(F)c1 (stereo not drawn) [Compound 297]
6.00 to 7.00	6.00 to 6.60	5.30 to 6.00	Cc1ccn(CC(=O)N(c2cccc(F)c2)C(C(=O)NC2CCCCC2)c2ccccc2C)n1 (stereo not drawn) [Compound 298]
6.00 to 7.00	5.30 to 6.00	6.00 to 6.60	COc1cccc(-c2cccc(N(C(=O)Cn3ccnc3C)C(C(=O)NC3CCCCC3)c3ccccc3C)c2)c1 (stereo not drawn) [Compound 299]
≥ 7.00	≥ 6.60	≥ 6.60	Cc1ccccc1C(C(=O)NC1CCCCC1)N(C(=O)CNc1ncccc1F)c1cccc(F)c1 (stereo not drawn) [Compound 301]
6.00 to 7.00	≥ 6.60	6.00 to 6.60	Cc1ccccc1C(C(=O)NC1CCCCC1)N(C(=O)CNc1cccc(F)n1)c1cccc(F)c1 (stereo not drawn) [Compound 302]
6.00 to 7.00	≥ 6.60	6.00 to 6.60	Cc1ccccc1C(C(=O)NC1CCCCC1)N(C(=O)COc1cc(C(F)(F)F)ccn1)c1cccc(F)c1 (stereo not drawn) [Compound 303]
6.00 to 7.00	< 5.30	6.00 to 6.60	Cc1ccccc1C(C(=O)NC1CCCCC1)N(Cc1nccs1)C(=O)Cn1ccnc1 (stereo not drawn) [Compound 304]
6.00 to 7.00	6.00 to 6.60	6.00 to 6.60	Cc1ccccc1C(C(=O)NC1CCCCC1)N(C(=O)Cc1ccccn1)c1cccc(F)c1 (stereo not drawn) [Compound 305]
≥ 7.00	6.00 to 6.60	≥ 6.60	COC(=O)N1CCCC1C(=O)N(c1cccc(F)c1)C(C(=O)NC1CCCCC1)c1ccccc1C (stereo not drawn) [Compound 306]
≥ 7.00	6.00 to 6.60	6.00 to 6.60	O=C(NC1CCCCC1)C(c1ccccc1Cl)N(C(=O)Cc1cscn1)c1cccc(F)c1 (stereo not drawn) [Compound 307]

Structure (SMILES)	pIC50 [1]	pIC50 [2]	pIC50 [3]
Cc1ccccc1C(C(=O)NC1CCCCC1)N(C(=O)Cc1ccc(OC(=O)N(C)C)cc1)c1cccc(F)c1 (stereo not drawn) [Compound 263]	6.00 to 7.00	≥ 6.60	6.00 to 6.60
